Laboratory results published in US9073881B2, “Benzoic acid derivatives” (HOFFMANN-LA ROCHE INC., priority 2011, dated 2015).
pIC50: −log10 of the molar value.

biological target: Human eIF4E (Homo sapiens (Human), UniProt P06730); assay: Human eIF4E/4G binding assay (time-resolved fluorescence, HH-eIF4E and biotin-labeled 4G2 peptide); conditions: inhibition of binding of His-tagged human eIF4E (aa 28-217) to biotin-labeled 4G2 peptide
Experimental: The protein was solubilized with 8 M urea and purified under denaturing conditions using nickel-charged HisTrap HP columns (GE Healthcare). The protein was refolded by diluting to approximately 0.25 mg/mL with 6 M urea, 20 mM Hepes pH 7.0, 500 mM NaCl, 1 mM DTT, 1 mM EDTA, and 0.5 M arginine.HCl, and then dialyzing overnight into the same buffer without the urea. The protein was further dialyzed into 20 mM Hepes pH 6.5, 50 mM NaCl, 1 mM EDTA, and 1 mM DTT, filtered, and then concentrated using Hitrap SP sepharose FF columns (GE Healthcare). The protein was dialyzed into 20 mM Hepes pH 7.0, 500 mM NaCl, 5 mM DTT, and 10% glycerol and stored at −80° C. until use. Test compounds (1.6 mM stock in DMSO) were diluted 3 fold in series in DMSO. Compound solutions were diluted 4 fold in Assay Buffer (50 mM sodium phosphate, pH 6.5, 50 mM KCl, 1 mM DTT and 0.5 mg/mL gammaglobulin). […] The samples were incubated at room temperature for 20 minutes. […] IC50 values were calculated using Condoseo software (Genedata AG).

Chain of Human eIF4E (P06730 28-217): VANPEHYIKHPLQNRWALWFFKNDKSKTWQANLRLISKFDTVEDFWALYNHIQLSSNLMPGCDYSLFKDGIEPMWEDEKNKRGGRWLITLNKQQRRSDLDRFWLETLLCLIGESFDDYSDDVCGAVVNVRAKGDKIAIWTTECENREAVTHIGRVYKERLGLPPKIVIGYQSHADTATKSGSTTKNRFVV

pIC50	Compound
5.59	O=C(O)c1cc(-c2nc(-c3ccc(OC(F)(F)F)cc3)cs2)ccc1-c1ccccc1[N+](=O)[O-] [Example 2, 2′-Nitro-4-[4-(4-trifluoromethoxy-phenyl)-thiazol-2-yl]-biphenyl-2-carboxylic acid]
5.00	O=C(O)c1cc(-c2nc(-c3ccc(OC(F)F)cc3)cs2)ccc1-c1ccccc1[N+](=O)[O-] [Example 3, 4-[4-(4-Difluoromethoxy-phenyl)-thiazol-2-yl]-2′-nitro-biphenyl-2-carboxylic acid]
5.70	O=C(O)c1cc(-c2nc(-c3ccc(Cl)c(Cl)c3)cs2)ccc1-c1cc(C(F)(F)F)ccc1[N+](=O)[O-] [Example 4, 4-[4-(3,4-Dichloro-phenyl)-thiazol-2-yl]-2′-nitro-5′-trifluoromethyl-biphenyl-2-carboxylic acid]
4.64	O=C(O)c1cc(-c2nc(-c3ccccc3C(F)(F)F)cs2)ccc1-c1ccccc1[N+](=O)[O-] [Example 5, 2′-Nitro-4-[4-(2-trifluoromethyl-phenyl)-thiazol-2-yl]-biphenyl-2-carboxylic acid]
5.08	O=C(O)c1cc(-c2nc(-c3cccc(C(F)(F)F)c3)cs2)ccc1-c1ccccc1[N+](=O)[O-] [Example 6, 2′-Nitro-4-[4-(3-trifluoromethyl-phenyl)-thiazol-2-yl]-biphenyl-2-carboxylic acid]
5.62	O=C(O)c1cc(-c2nc(-c3ccc(C(F)(F)F)cc3)cs2)ccc1-c1ccccc1[N+](=O)[O-] [Example 7, 2′-Nitro-4-[4-(4-trifluoromethyl-phenyl)-thiazol-2-yl]-biphenyl-2-carboxylic acid]
5.60	O=C(O)c1cc(-c2nc(-c3cc(C(F)(F)F)cc(C(F)(F)F)c3)cs2)ccc1-c1ccccc1[N+](=O)[O-] [Example 8, 4-[4-(3,5-Bis-trifluoromethyl-phenyl)-thiazol-2-yl]-2′-nitro-biphenyl-2-carboxylic acid]
5.23	Cc1cc(-c2csc(-c3ccc(-c4ccccc4[N+](=O)[O-])c(C(=O)O)c3)n2)ccc1Cl [Example 9, 4-[4-(4-Chloro-3-methyl-phenyl)-thiazol-2-yl]-2′-nitro-biphenyl-2-carboxylic acid]
5.46	O=C(O)c1cc(-c2nc(-c3ccc(Cl)cc3Cl)cs2)ccc1-c1ccccc1[N+](=O)[O-] [Example 10, 4-[4-(2,4-Dichloro-phenyl)-thiazol-2-yl]-2′-nitro-biphenyl-2-carboxylic acid]
5.54	O=C(O)c1cc(-c2nc(-c3cc(Cl)ccc3Cl)cs2)ccc1-c1ccccc1[N+](=O)[O-] [Example 12, 4-[4-(2,5-Dichloro-phenyl)-thiazol-2-yl]-2′-nitro-biphenyl-2-carboxylic acid]
5.28	O=C(O)c1cc(-c2nc(-c3ccc(Cl)cc3)cs2)ccc1-c1ccccc1[N+](=O)[O-] [Example 13, 4-[4-(4-Chloro-phenyl)-thiazol-2-yl]-2′-nitro-biphenyl-2-carboxylic acid]
5.89	O=C(O)c1cc(-c2nc(-c3ccc(Cl)c(Cl)c3)cs2)ccc1-c1cc(Cl)ccc1[N+](=O)[O-] [Example 14, 5′-Chloro-4-[4-(3,4-dichloro-phenyl)-thiazol-2-yl]-2′-nitro-biphenyl-2-carboxylic acid]
5.55	O=C(O)c1cc(-c2nc(-c3ccc(Cl)c(Cl)c3)cs2)ccc1-c1ccccc1[N+](=O)[O-] [Example 15, 4-[4-(3,4-Dichloro-phenyl)-thiazol-2-yl]-2′-nitro-biphenyl-2-carboxylic acid]
6.30	O=C(O)c1cc(-c2nc(-c3ccc(Cl)c(Cl)c3)cs2)ccc1-c1ccccc1[N+](=O)[O-] [Example 16, 4-[4-(3,4-Dichloro-phenyl)-thiazol-2-yl]-2′-nitro-biphenyl-2-carboxylic acid]
5.51	O=C(O)c1cc(-c2nc(-c3cccc(Cl)c3)cs2)ccc1-c1ccccc1[N+](=O)[O-] [Example 17, 4-[4-(3-Chloro-phenyl)-thiazol-2-yl]-2′-nitro-biphenyl-2-carboxylic acid]
5.30	O=C(O)c1cc(-c2nc(-c3ccc(F)c(Cl)c3)cs2)ccc1-c1ccccc1[N+](=O)[O-] [Example 18, 4-[4-(3-Chloro-4-fluoro-phenyl)-thiazol-2-yl]-2′-nitro-biphenyl-2-carboxylic acid]
< 4.10	O=C(O)c1cc(-c2nc(-c3c(F)cccc3F)cs2)ccc1-c1ccccc1[N+](=O)[O-] [Example 20, 4-[4-(2,6-Difluoro-phenyl)-thiazol-2-yl]-2′-nitro-biphenyl-2-carboxylic acid]
5.59	O=C(O)c1cc(-c2nc(-c3cccc(F)c3)cs2)ccc1-c1ccccc1[N+](=O)[O-] [Example 24, 4-[4-(3-Fluoro-phenyl)-thiazol-2-yl]-2′-nitro-biphenyl-2-carboxylic acid]
5.36	O=C(O)c1cc(-c2nc(-c3ccc(Br)s3)cs2)ccc1-c1ccccc1[N+](=O)[O-] [Example 25, 4-[4-(5-Bromo-thiophen-2-yl)-thiazol-2-yl]-2′-nitro-biphenyl-2-carboxylic acid]
5.52	O=C(O)c1cc(-c2nc(-c3cccc(Br)c3)cs2)ccc1-c1ccccc1[N+](=O)[O-] [Example 26, 4-[4-(3-Bromo-phenyl)-thiazol-2-yl]-2′-nitro-biphenyl-2-carboxylic acid]
5.40	O=C(O)c1cc(-c2nc(-c3ccc(Br)cc3)cs2)ccc1-c1ccccc1[N+](=O)[O-] [Example 27, 4-[4-(4-Bromo-phenyl)-thiazol-2-yl]-2′-nitro-biphenyl-2-carboxylic acid]
5.49	COc1ccc(-c2ccc(-c3nc(-c4ccc(Cl)c(Cl)c4)cs3)cc2C(=O)O)c([N+](=O)[O-])c1 [Example 28, 4-[4-(3,4-Dichloro-phenyl)-thiazol-2-yl]-4′-methoxy-2′-nitro-biphenyl-2-carboxylic acid]
5.08	COc1ccc(-c2csc(-c3ccc(-c4ccccc4[N+](=O)[O-])c(C(=O)O)c3)n2)cc1 [Example 32, 4-[4-(4-Methoxy-phenyl)-thiazol-2-yl]-2′-nitro-biphenyl-2-carboxylic acid]
< 4.10	CS(=O)(=O)c1ccc(-c2csc(-c3ccc(-c4ccccc4[N+](=O)[O-])c(C(=O)O)c3)n2)cc1 [Example 33, 4-[4-(4-Methanesulfonyl-phenyl)-thiazol-2-yl]-2′-nitro-biphenyl-2-carboxylic acid]
< 4.10	O=C(O)c1cc(-c2nc(-c3ccccn3)cs2)ccc1-c1ccccc1[N+](=O)[O-] [Example 37, 2′-Nitro-4-(4-pyridin-2-yl-thiazol-2-yl)-biphenyl-2-carboxylic acid]
< 4.10	O=C(O)c1cc(-c2nc(-c3cccnc3)cs2)ccc1-c1ccccc1[N+](=O)[O-] [Example 38, 2′-Nitro-4-(4-pyridin-3-yl-thiazol-2-yl)-biphenyl-2-carboxylic acid]
< 4.10	O=C(O)c1cc(-c2nc(-c3ccncc3)cs2)ccc1-c1ccccc1[N+](=O)[O-] [Example 39, 2′-Nitro-4-(4-pyridin-4-yl-thiazol-2-yl)-biphenyl-2-carboxylic acid]
5.38	Cc1ccc(-c2csc(-c3ccc(-c4ccccc4[N+](=O)[O-])c(C(=O)O)c3)n2)c(C)c1 [Example 40, 4-[4-(2,4-Dimethyl-phenyl)-thiazol-2-yl]-2′-nitro-biphenyl-2-carboxylic acid]
